Data taken from patent publication US20220313651A1, “INHIBITORS OF ZIKA VIRUS INFECTION” (priority 2019, published 2022).

Columns and labels:
[1] = target: ZIKV full-length E protein (Zika virus, UniProt Q32ZE1); assay: ELISA binding to ZIKV full-length E protein
Procedure: (§1) Binding of compounds (NPs) to ZIKV full-length E (FIG. 3A), EDIII (FIG. 3B), and NS2B-NS3 (FIG. 3C) proteins, was detected by ELISA. The percent binding was reported in the presence or absence of serially diluted NPs using the formula (1-[E/EDIII-NP]/[E/EDIII])×100 (for E/EDIII binding) or (1-[NS2B-NS3-NP]/[NS2B-NS3])×100 (for NSEB-NS3 binding). […] The concentrations of ZIKV EDIII and mAbs were 1.5 and 0.5 μg/ml, respectively. […] The concentrations of substrate (Bz-Nle-Lys-Lys-Arg-AMC) and ZIKV NS2B-NS3 protein were 4 μM and 1 μg/ml, respectively. The percent inhibition of protease activity was calculated in the presence or absence of serially diluted compounds using the formula (1-[NS2B-NS3-substrate-NP]/[NS2B-NS3-substrate])×100. The IC50 values were calculated based on the percent inhibition. The data are expressed as mean±s.e.m. (n=4).
(§2) The data are expressed as mean±s.e.m. (n=4), and DMSO was used as negative control. Surface plasmon resonance (SPR) analysis of the binding between ST087010 and ZIKV EDIII (FIG. 6D) or NS2B-NS3 (FIG. 6E) protein was performed. Binding affinity was shown as KD (equilibrium dissociation constant).
(§3) The binding between the Z-medicament and ZIKV full-length E protein, EDIII protein (E residues 298-409 fused with a C-terminal human Fc), or NS2B-NS3 protease was carried out by ELISA. Briefly, ELISA plates were pre-coated with the proteins described above at 4° C. overnight, and blocked with 2% fat-free milk at 37° C. for 2 h. Serial dilutions of the Z-medicament or DMSO (control) were then added to the plates and incubated at 37° C. for 2 h. The plates were washed with PBS containing Tween-20 (PBST), and incubated at 37° C. for 1 h with ZIKV EDIII-specific human mAb ZKA64-LALA (0.5 μg/ml) (for binding to ZIKV full-length E and EDIII proteins), or mouse sera specific to ZIKV NS2B-NS3 (for binding to NS2B-NS3 protease). The plates were washed with PBST, and incubated with horseradish peroxidase (HRP)-conjugated anti-human IgG-Fab (1:3000) or anti-mouse IgG (1:3000) antibody at 37° C. for 1 h. The 3,3′,5,5′-tetramethylbenzidine (TMB) substrate was added to the plates, and the reaction was stopped by 1 N H2SO4. Absorbance at 450 nm (A450 value) was measured by ELISA microplate reader.
(§4) Briefly, ELISA plates were coated with each protein (1 μg/ml) at 4° C. overnight, and were then incubated with blocking buffer containing 2% fat-free milk in PBST at 37° C. for 2 h. The above compounds, or DMSO control, at serial dilutions were added to the plates, and incubated at 37° C. for 2 h. After three washes using PBST, the plates were incubated at 37° C. for 2 h with ZIKV EDIII-specific human mAb ZKA64-LALA (0.5 μg/ml) (for binding to ZIKV full-length E or EDIII protein), or ZIKV NS2B-NS3-specific mouse sera (for binding to NS2B-NS3 protein). After further washes, the plates were incubated with HRP-conjugated anti-human IgG-Fab (1:3,000) or anti-mouse IgG (1:3,000) antibody at 37° C. for 1 h. The plates were incubated with substrate TMB, and the reaction was stopped by addition of 1 N H2SO4. Absorbance at 450 nm (A450 values) was measured by an ELISA microplate reader. EC50 values were calculated.

ZIKV NS2B-NS3 protease = target: T1, ZIKV NS2B-NS3 protease (Zika virus, UniProt Q32ZE1); assay: ELISA binding to ZIKV NS2B-NS3 protease
T1 construct: 49-97) and NS2 protein (residues 1-185) through a covalent; made in house; host or cells: E. coli
Procedure: as §1, §2, §3
as §4, with “h.” for “h. The plates were incubated with substrate TMB, and the reaction was stopped by addition of 1 N H2SO4. Absorbance at 450 nm (A450 values) was measured by an ELISA microplate reader. EC50 values were calculated.”

ZIKV PRVABC59 strain = assay: Combinatorial effects of gossypol with other Z-medicaments, ZIKV PRVABC59; assay type: cell-based, Zika virus (ZIKV); conditions: for Fold of Enhancement: IC50 alone / in mixture; for CI (combination index): named compound in combination with gossypol
Procedure: The unbound viruses and Z-medicaments were removed, and the cells were cultured at 37° C. for 4-5 days, followed by staining with 0.5% crystal violet. The Z-medicaments without combinations were used as controls. The IC50 of the Z-medicaments was calculated as described above.
The Z-medicaments were then analyzed for synergistic effects based on the combination index (CI) and IC50 values using the CalcuSyn program. Specifically, CI values <1 and >1 indicate synergy and antagonism, respectively. Synergy was further identified as five different categories: CI values <0.1, 0.1-0.3, 0.3-0.7, 0.7-0.85, and 0.85-0.90 indicate very strong synergism, strong synergism, synergism, moderate synergism, and slight synergism, respectively. Fold enhancement of anti-ZIKV potency is expressed as the ratio of molar concentrations of the Z-medicaments tested alone and in the mixture.

Compound	Binding to ZIKV full-length E protein (in words) [1]	Binding to ZIKV NS2B-NS3 protein (in words) (ZIKV NS2B-NS3 protease)	Fold of Enhancement (ZIKV PRVABC59 strain; gossypol + digitonin)	CI (combination index) (ZIKV PRVABC59 strain)	Fold of Enhancement (ZIKV PRVABC59 strain; gossypol + conessine)	Fold of Enhancement (ZIKV PRVABC59 strain; gossypol + curcumin)	EC50 ([1]; detected with mAb ZKA64-LALA)	EC50 (ZIKV NS2B-NS3 protease; detected with NS2B-NS3-immunized mouse sera, read-out: EC50, binding to ZIKV NS2B-NS3 protein)
C[C@@H]1CC[C@@]2(OC1)O[C@H]1[C@@H](O)[C@H]3[C@@H]4CC[C@H]5C[C@@H](O[C@@H]6O[C@H](CO)[C@H](O[C@@H]7O[C@H](CO)[C@@H](O)[C@H](O[C@@H]8OC[C@@H](O)[C@H](O)[C@H]8O)[C@H]7O[C@@H]7O[C@H](CO)[C@H](O)[C@H](O[C@@H]8O[C@H](CO)[C@@H](O)[C@H](O)[C@H]8O)[C@H]7O)[C@H](O)[C@H]6O)[C@H](O)C[C@]5(C)[C@H]4CC[C@]3(C)[C@H]1[C@@H]2C [Digitonin, digitonin]	bound to no ZIKV proteins tested	bound to no ZIKV proteins tested	6.98	0.29	–	–	–	–
C[C@H]1[C@H]2CC[C@H]3[C@@H]4CC=C5C[C@@H](N(C)C)CC[C@]5(C)[C@H]4CC[C@]23CN1C [Conessine, conessine]	bound to no ZIKV proteins tested	bound to no ZIKV proteins tested	–	0.28	7.29	–	–	–
COc1cc(/C=C/C(=O)CC(=O)/C=C/c2ccc(O)c(OC)c2)ccc1O [Curcumin, curcumin]	much lower binding affinity	much lower binding affinity	–	0.30	–	6.46	–	–
Cc1cc2c(C(C)C)c(O)c(O)c(/C=N/n3c(=O)[nH][nH]c3=O)c2c(O)c1-c1c(C)cc2c(C(C)C)c(O)c(O)c(/C=N/n3c(=O)[nH][nH]c3=O)c2c1O [ST087010]	–	–	–	–	–	–	6.47 µM	21.9 µM
